pIC50: −log10 of the molar value.
Experiments:
[1] = system: treatment-refractory primary Acute Myelogenous Leukemia (AML) cells from patients; details: cited from earlier work
[2] = system: malignant cells from B-cell chronic lymphocytic leukemia (B-CLL); details: in vitro; cited from earlier work
Activated CDK2/CyclinA = Activated CDK2/CyclinA (Homo sapiens, UniProt P24941); experiment: Activated CDK2/CyclinA kinase inhibitory activity assay; format: biochemical; details: read-out: IC50 against CDK2 activity
Method: Measurement of Activated CDK2/CyclinA Kinase Inhibitory Activity Assay (IC50)
Compounds of the invention were tested for kinase inhibitory activity using the following protocol.
Activated CDK2/CyclinA (Brown et al, Nat. Cell Biol., 1, pp 438-443, 1999; Lowe, E. D., et al Biochemistry, 41, pp 15625-15634, 2002) is diluted to 125 pM in 2.5× strength assay buffer (50 mM MOPS pH 7.2, 62.5 mM β-glycerophosphate, 12.5 mM EDTA, 37.5 mM MgCl2, […], 2.5 mM DTT, 2.5 mM sodium orthovanadate, 0.25 mg/ml bovine serum albumin), and 10 μl mixed with 10 μl of histone substrate mix (60 μl bovine histone H1 (Upstate Biotechnology, 5 mg/ml), 940 μl H2O, 35μ Ci γ^33P-ATP) and added to 96 well plates along with 5 μ of various dilutions of the test compound in DMSO (up to 2.5%). The reaction is allowed to proceed for 2 to 4 hours before being stopped with an excess of ortho-phosphoric acid (5 μl at 2%).
γ^33P-ATP which remains unincorporated into the histone H1 is separated from phosphorylated histone H1 on a Millipore MAPH filter plate. The wells of the MAPH plate are wetted with 0.5% orthophosphoric acid, and then the results of the reaction are filtered with a Millipore vacuum filtration unit through the wells. […] Once the filters have dried, 20 μl of Microscint 20 scintillant is added, and then counted on a Packard Topcount for 30 seconds. […]

CDK1/CyclinB = target: T1, CDK1/CyclinB (Homo sapiens, UniProt P06493); experiment: Activated CDK1/CyclinB activity assay; format: biochemical; details: read-out: IC50 against CDK1 activity
T1 construct: purchased Upstate Discovery
T1 sequence (P06493 whole entry): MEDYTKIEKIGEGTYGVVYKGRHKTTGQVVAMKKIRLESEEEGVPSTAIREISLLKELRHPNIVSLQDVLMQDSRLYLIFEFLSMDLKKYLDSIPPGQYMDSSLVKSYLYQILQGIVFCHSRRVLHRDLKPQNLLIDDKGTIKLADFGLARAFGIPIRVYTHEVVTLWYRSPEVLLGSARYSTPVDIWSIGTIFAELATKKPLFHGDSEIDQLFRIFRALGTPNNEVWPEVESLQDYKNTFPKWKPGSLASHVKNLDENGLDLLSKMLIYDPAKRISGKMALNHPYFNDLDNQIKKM
T1 sequence (P14635 whole entry partner): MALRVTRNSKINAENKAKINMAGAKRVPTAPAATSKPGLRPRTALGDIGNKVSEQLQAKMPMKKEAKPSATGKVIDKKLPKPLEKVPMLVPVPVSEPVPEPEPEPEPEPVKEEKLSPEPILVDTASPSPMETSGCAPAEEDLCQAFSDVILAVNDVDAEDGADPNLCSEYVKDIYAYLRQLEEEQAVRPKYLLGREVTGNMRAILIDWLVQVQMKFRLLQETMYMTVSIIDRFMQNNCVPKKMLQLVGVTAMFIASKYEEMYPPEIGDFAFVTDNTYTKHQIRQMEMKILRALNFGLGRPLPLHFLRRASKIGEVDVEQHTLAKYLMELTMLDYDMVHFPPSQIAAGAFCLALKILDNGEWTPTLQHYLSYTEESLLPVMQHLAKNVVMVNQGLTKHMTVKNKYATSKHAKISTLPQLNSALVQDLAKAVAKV
Method: Measurement of Activated CDK1/Cycling Activity Assay (IC50)
CDK1/CyclinB assay is identical to the CDK2/CyclinA above except that CDK1/CyclinB (Upstate Discovery) is used and the enzyme is diluted to 6.25 nM.

Q: With `Cc1cc(Nc2cc(N3CCN(C)CC3)nc(Sc3ccc(NC(=O)C4CC4)cc3)n2)n[nH]1` [VX-680] as the compound, how does the “killing of treatment-refractory primary AML cells” value [1] read?
A: potently killed

Q: With `CC[C@H](CO)Nc1nc(NCc2ccccc2)c2ncn(C(C)C)c2n1` [CYC 202] as the compound, how does the “apoptosis of malignant B-CLL cells” value [2] read?
A: induce in vitro apoptosis

Q: With `O=C(Nc1c[nH]nc1-c1cccnc1)c1c(F)cccc1F` [Example 1, 2,6-difluoro-N-(3-pyridin-3-yl-1H-pyrazol-4-yl)-benzamide] as the compound, how does the pIC50 (Activated CDK2/CyclinA) read?
A: > 6.00

Q: And the pIC50 (CDK1/CyclinB)?
A: > 6.00

Q: For `CN1CC[C@H](c2c(O)cc(O)c3c(=O)cc(-c4ccccc4Cl)oc23)[C@H](O)C1` [Flavopiridol], which “apoptosis of malignant B-CLL cells” value [2] is on record?
A: induce in vitro apoptosis
